Assay results published in ChEMBL document CHEMBL4184162, “Hybrid DNA i-motif: Aminoethylprolyl-PNA (pC5) enhance the stability of DNA (dC5) i-motif structure” (Bioorg Med Chem Lett, 2017).
The source made the active and inactive calls. The calls are words filed in the database; no cut-off is given here.

Legend:
[1] = Stabilization of i-motif DNA (unknown origin) assessed as change in melting temperature at 22.5 uM at pH 4.5 in presence of DC5 by UV-based analysis
[2] = Stabilization of i-motif DNA (unknown origin) assessed as change in melting temperature at 22.5 uM at pH 5 in presence of DC5 by UV-based analysis
[3] = Stabilization of i-motif DNA (unknown origin) assessed as change in melting temperature at 22.5 uM at pH 5.5 in presence of DC5 by UV-based analysis
[4] = Stabilization of i-motif DNA (unknown origin) assessed as change in melting temperature at 22.5 uM at pH 6 in presence of DC5 by UV-based analysis
[5] = Stabilization of i-motif DNA (unknown origin) at 22.5 uM at pH 4 to 6 by CD-spectra analysis

CC(=O)NCCN1C[C@@H](n2ccc(N)nc2=O)C[C@H]1C(=O)NCCN1C[C@@H](n2ccc(N)nc2=O)C[C@H]1C(=O)NCCN1C[C@@H](n2ccc(N)nc2=O)C[C@H]1C(=O)NCCN1C[C@@H](n2ccc(N)nc2=O)C[C@H]1C(=O)NCCN1C[C@@H](n2ccc(N)nc2=O)C[C@H]1C(=O)NCCC(N)=O
ΔTm [1]: 15.3 °C | ΔTm [2]: 17.9 °C | ΔTm [3]: 8.85 °C | ΔTm [4]: 13.2 °C | Activity [5]: Active
